This note sets out measurements from ChEMBL document CHEMBL4823310, “Small Molecule Inhibitors of KRAS G12C Mutant” (ACS Med Chem Lett, 2021).

Experiment [1] in a line: Inhibition of ERK phosphorylation in human NCI-H358 cells incubated for 2 hrs by cellular assay. The experiment is classed as cell-based. The following applies: NCI-H358, 2 h.
For the next experiment, the target named is GTPase KRas (Homo sapiens, UniProt P01116, C118S/C51S/C80L/G12C). Description: Inhibition of biotinylated KRAS G12C/C51S/C80L/C118S mutant (unknown origin) pretreated for 60 mins followed by recombinant SOS addition by SOS-catalyzed nucleotide exchange-based TR-FRET analysis. (In general: TR-FRET usually uses a lanthanide donor and a delayed reading to cut background.)
Chain of GTPase KRas (P01116 whole entry G12C/C51S/C80L/C118S): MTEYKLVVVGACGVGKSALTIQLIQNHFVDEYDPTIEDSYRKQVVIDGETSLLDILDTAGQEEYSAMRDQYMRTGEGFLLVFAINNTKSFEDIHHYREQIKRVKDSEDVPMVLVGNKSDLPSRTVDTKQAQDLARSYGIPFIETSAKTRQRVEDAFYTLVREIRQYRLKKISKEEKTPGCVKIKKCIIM

The structures appear in SMILES notation. pIC50: −log10 of the molar value.

The term pIC50 denotes the IC50 on a negative log10 scale, so that one unit is a factor of ten. `C=CC(=O)N1C[C@H](C)N(c2nc(=O)n3c4nc(c(Cl)cc24)-c2c(ccc(F)c2F)OCCCc2ncnc(C(C)C)c2-3)C[C@H]1C`: the pIC50 in experiment [1] is 8.44.

Consider `C=CC(=O)N1C[C@H](C)N(c2nc(=O)n3c4nc(c(F)cc24)-c2c(Cl)cccc2OCCCc2ccnc(C(C)C)c2-3)C[C@H]1C`, for which, in experiment [1], the pIC50 is 8.44.

For `[2H]C1([2H])Oc2ccc(F)c(F)c2-c2nc3c(cc2Cl)c(N2C[C@@H](C)N(C(=O)C=C)C[C@@H]2C)nc(=O)n3-c2c(ccnc2C(C)C)OC1([2H])[2H]`, the pIC50 at GTPase KRas was 9.29; in experiment [1], 8.21.

Consider `C=CC(=O)N1CCN(c2nc(=O)n3c4nc(c(Cl)cc24)-c2c(F)cccc2OCC(F)(F)CCc2ccnc(C(C)C)c2-3)[C@@H](C)C1`, for which the results for the negative logarithm of the IC50 (pIC50) (on GTPase KRas; in experiment [1]) were 9.25 and 8.52, respectively.

`C=CC(=O)N1C[C@H](C)N(c2nc(=O)n3c4nc(c(F)cc24)-c2c(ccc(F)c2F)OCCC(C)c2ccnc(C(C)C)c2-3)C[C@H]1C` (stereo partly drawn) gave a pIC50 in experiment [1] of 8.17.

Regarding `C=CC(=O)N1C[C@H](C)N(c2nc(=O)n3c4nc(c(F)cc24)-c2c(F)cccc2OCCCc2ccnc(C(C)C)c2-3)C[C@H]1C`, the pIC50 in experiment [1] is 8.06.

On to `C=CC(=O)N1CCN(c2nc(=O)n3c4nc(c(F)cc24)-c2c(F)cccc2OCCCc2ccnc(C(C)C)c2-3)[C@@H](C)C1`, for which the pIC50 was 8.37 at GTPase KRas and 8.17 in experiment [1].

`C=CC(=O)N1CCN(c2nc(=O)n3c4nc(c(F)cc24)-c2c(F)cccc2OCCCCc2ccnc(C(C)C)c2-3)[C@@H](C)C1`: the pIC50 on GTPase KRas was 8.62; in experiment [1] it was 8.82.

Consider `C=CC(=O)N1C[C@H](C)N(c2nc(=O)n3c4nc(c(F)cc24)-c2c(F)cccc2OCCCCc2ccnc(C(C)C)c2-3)C[C@H]1C`, for which the negative-log IC50 (pIC50) in experiment [1] is 8.66.

Turning to `C=CC(=O)N1C[C@H](C)N(c2nc(=O)n3c4nc(c(Cl)cc24)-c2c(F)ccc(F)c2OCCOc2ccnc(C(C)C)c2-3)C[C@H]1C`, the pIC50 on GTPase KRas was 8.96; in experiment [1], 8.36.

Take `C=CC(=O)N1C[C@H](C)N(c2nc(=O)n3c4nc(c(Cl)cc24)-c2c(F)cccc2OCCc2ccnc(C(C)C)c2-3)C[C@H]1C`: the pIC50 at GTPase KRas is 8.59; in experiment [1], 8.29.

With `C=CC(=O)N1C[C@H](C)N(c2nc(=O)n3c4nc(c(Cl)cc24)-c2c(F)cccc2OCC(F)(F)COc2ccnc(C(C)C)c2-3)C[C@H]1C`, the pIC50 in experiment [1] is 8.21.
